Measurements reported in publication PMC11521691, “Elucidating the antimicrobial and anticarcinogenic potential of methanolic and water extracts of edible Tragopogon coelesyriacus Boiss” (Food Science & Nutrition, 2024).

Assays:
[1] = system: AR42J (pancreatic cancer) cells; experiment: MTT cytotoxicity assay; format: cell-based, human
Protocol: (§1) This study included three epithelial cancerous (AR42J, pancreatic cancer; HeLa, cervical cancer, and MDA‐MB‐231 breast cancer) and two noncancerous epithelial human cells (ARPE‐19, retina; and MCF10A, breast). AR42J (ECACC, Cat No. 93100618) and MDA‐MB‐231 (ATCC, Cat No. HTB‐26) cells were cultured in RPMI media. HeLa cells (ATCC, Cat No. CCl‐2) were cultured in EMEM media. ARPE‐19 (ATCC, Cat No. CRL‐2302) and MCF10A (ATCC, Cat No. CRL‐10317) cells were cultured in DMEM. Each medium consisted of penicillin–streptomycin (1%) and fetal bovine serum (10%). Cells were cultured in a 37°C incubator with 5% CO2 humidification. Cells were cultured in 96‐well plates as 10.000 cells per well. After they reached at 80% confluency, cells were treated with extracts. For this, experiments for each cell included two groups, (1) treated with T. coelesyriacus extracts obtained by methanol for 24 h, 48 h, and 72 h at 3.125, 6.25, 12.5, 25, […], 100, and 200 μg/mL, and (2) treated with T. coelesyriacus extracts obtained by water for 24 h, 48 h, and 72 h at 3.125, 6.25, 12.5, 25, […], 100, and 200 μg/mL. Control wells for each cell were untreated (0 μg/mL). Positive control experiments were performed with cisplatin at the same concentrations with extracts (3.125–100 μg/mL) for 24 h, 48 h, and 72 h. For each dose at each concentration, at least three wells were used as intra‐experimental repeats. The whole experiments for each cell were repeated as two to three independent replications.
(§2) After treatment with different extracts (at 3.125, 6.25, 12.5, 25, 50, 100, and 200 μg/mL for 24 h, 48 h, and 72 h), media with extracts were removed, and the MTT protocol was applied as before (Cakmak et al., [2021]). MTT was also applied after cisplatin treatment for 24 h, 48 h, and 72 h. The concentrations of cisplatin used were 3.125, 6.25, 12.5, 25, 50, and 100 μg/mL. In this method, 200 μL of media, including 10 μL MTT (3‐(4,5‐dimethylthiazol‐2‐yl)‐2,5‐diphenyltetrazolium bromide), was added to each well and incubated at 37°C for 2.5 h. After incubation, media with MTT were removed, and 150 μL of DMSO was added to each well for dissolving formazan crystals. Subsequently, plates were incubated in the dark on a shaker for 1 h. Absorbances at 570 nm were read. Cell viabilities (as percentages) were calculated according to the viability of untreated cells considered as 100%. If applicable, IC50 values were calculated as before (Uzuner et al., [2021]).

[2] = system: ARPE‐19 (retinal epithelial) cells; experiment: MTT cytotoxicity assay; format: cell-based, human; conditions: ARPE19 normal cells
Protocol: as §1, §2

[3] = system: HeLa (cervical cancer) cells; experiment: MTT cytotoxicity assay; format: cell-based, human
Protocol: as §1, §2

[4] = system: MCF10A (breast epithelial) cells; experiment: MTT cytotoxicity assay; format: cell-based, human; conditions: MCF10A normal cells
Protocol: as §1, §2

[5] = system: MDA‐MB‐231 (breast cancer) cells; experiment: MTT cytotoxicity assay; format: cell-based, human
Protocol: as §1, §2

[6] = system: HeLa cells; parameters: method as in Liu et al., 2008; conditions: 25 μg/mL for 72 h, ref Liu et al., 2008; cited from earlier work

N.N.[Cl][Pt][Cl] [cisplatin]
IC50 value ([1]; 24 h incubation): 18.94 µg/mL | IC50 value ([1]; 48 h incubation): 14.84 µg/mL | IC50 value ([1]; 72 h incubation): 6.18 µg/mL | Ave IC50 values ([2]; 24 h): 63.42 µg/mL | Ave IC50 values ([2]; 48 h): 54.14 µg/mL | Ave IC50 values ([2]; 72 h): 16.01 µg/mL | Ave IC50 values ([3]; 24 h): 8.16 µg/mL | Ave IC50 values ([3]; 48 h): 13.92 µg/mL | IC50 value ([3]; 72 h incubation): 4.56 µg/mL | Ave IC50 values ([4]; 24 h): 33.56 µg/mL | Ave IC50 values ([4]; 48 h): 26.03 µg/mL | Ave IC50 values ([4]; 72 h): 8.32 µg/mL | Ave IC50 values ([5]; MDA‐MB‐231, 24 h): 41.28 µg/mL | Ave IC50 values ([5]; MDA‐MB‐231, 48 h): 27.87 µg/mL | IC50 value ([5]; MDA‐MB‐231, 72 h incubation): 10.92 µg/mL | cell death [6]: ~90%
